Test results reported in article PMC2362735, “New semisynthetic vinca alkaloids: chemical, biochemical and cellular studies” (British Journal of Cancer, 1999).

How the values were obtained:
[1] = target: T1, calmodulin (Bos taurus, UniProt P62157); test: Anti-calmodulin activity assay: calmodulin-induced PFK inactivation; assay type: biochemical, bovine; details: drug 20 M
T1 construct: Calmodulin from bovine brain was purified to homogeneity using Phenyl-Sepharose (Pharmacia) chromatography; from tissue; host or cells: bovine brain
From the text: (§1) The numerous antimitotic drugs already developed and therapeu- tically used for a large number of pathologies belong to different classes based on their chemical structure and other distinctive features. Antimitotic drugs usually target the tubulin/microtubule network of the cytoskeleton that is formed by assembly of cyto- plasmic tubulin dimers. The stability of the different microtubular structures varies considerably; some of their functions depend on their lability. The lability is augmented by the extreme sensitivity to various drugs. Several synthetic and natural compounds interact specifically with tubulin and/or microtubule, fundamentally destroying its dynamic character and leading to cell death. […] Because of their extensive clinical use, it is important to synthesize additional agents having at least the same biological activity. […] Nevertheless, it is unclear yet how the anti-calmodulin activity of these drugs is related to their desired and undesired pharmacological effects. […] The synthesis of the KAR derivatives are presented. […] Taxol, GTP and trifluoperazine were purchased from Sigma. All organic reagents for synthesis of the new compounds were obtained from Aldrich and were of the highest grade. All other chemicals were reagent grade commercial preparations. […] Tubulin was stored in 1 M sucrose, 10 mM sodium phosphate buffer, 0.5 mM magnesium chloride and 0.1 mM GTP, pH 7.0, at -80C and dialysed against the appropriate buffer before use. […] PFK, aldolase and glycerol-3-phosphate dehydrogenase- triosephosphate isomerase purified from rabbit skeletal muscle were purchased in ammonium sulphate suspensions from Sigma or Boehringer. The enzyme suspensions were centrifuged at 10 000g for 5 min. The pellets were suspended in the appropriate buffer, then the enzymes were gel filtered or dialysed in the same buffer to remove ammonium sulphate. […] (Figure 1B; R1 , CH3; R2 , CH2 CH2 Cl). […] After 2 h incubation at room temperature, 200 ml dried toluene was added to the reaction mixture. […] The mixture was stirred for 30 min. After separation of the organic phase, it was washed with water (3 x 30 ml) and dried with potassium sulphate and evaporated on a water bath of 35-40C at 20-27 hPa. The resulting material was chromatographed on silica gel (500 g, bead size of 0.040- 0.063 mm) column (30 mm x 500 mm) using ethyl acetate/ethanol (9:1) mixture as eluent. […] The mixture was kept for 4 h at room temperature and then evaporated on a water bath at 40C under a vacuum of 80 hPa to a final volume of 5-6 ml. […] (Figure 1B, R1 , CHO; R2 , CH2 CH2 Cl). […] Synthesis of KAR-4 [3-allyl-2,4-dioxo-3,5-spiro-oxazolidino- 4-deacetoxy-vinblastine] (Figure 1B; R1 , CH3; R2 , CH2 CH=CH2 ). […] NMR measurements were carried out on a Varian Unity plus-500 instrument (500 MHz for 1H and 125 MHz for 13C) in DMSO. Chemical shifts were determined relative to dTMS = 0.00 p.p.m. 1H and 13C signal assignments were verified by a concerted use of two-dimensional 1H-1H and 1H-13C shift correlation methods (DQFCOSY, HSQC, HMBC) and NOESY experiments. The gradient-enhanced DQFCOSY, HSQC, HMBC and NOESY experiments were recorded by using the standard spectrometer software package. A mixing time of tmix = 0.5 s was used for the NOESY experiments. […] Mass spectrum was recorded on a Kratos MS 80 instrument using FAB.

[2] = test system: tubulin/microtubule, PFK-bundled microtubules; test: Tubulin polymerization with or without PFK (bundled vs single microtubules): turbidity and pelleting with SDS-PAGE; assay type: biochemical, calf; details: 10 M tubulin, 2 M drug
From the text: as §1

SMILES: CC[C@]1(O)C[C@@H]2CN(CCc3c([nH]c4ccccc34)[C@@](C(=O)OC)(c3cc4c(cc3OC)N(C)[C@@H]3[C@]45CCN4CC=C[C@@](CC)(C[C@@]36OC(=O)N(CCCl)C6=O)[C@H]45)C2)C1 [KAR-2, 3′-(β-chloroethyl)-2′,4′-dioxo-3,5′-spiro-oxazolidino-4-deacetoxy-vinblastine]
- Effect on calmodulin induced PFK inactivation: Activity (U mg-1) ([1]; PFK 1.2 M protomers, calmodulin 3 M, 60 min, without calmodulin 66.6 U mg-1, with calmodulin 8.0 U mg-1): 11.1 U mg-1
- anti-calmodulin activity in the PFK assay (in words) [1]: does not display anti-calmodulin activity
- Anti-calmodulin activity: Efficiency (%) ([1]; calculated from the activity data (100% = PFK without calmodulin, 0% = PFK with calmodulin)): 5%
- tubulin partition in pelleting experiment, without PFK ([2]; 20 µM taxol, no PFK, SDS-PAGE of supernatant and pellet): practically all tubulin appears in the super- natants
- tubulin partition in pelleting experiment, with PFK (bundled microtubules) ([2]; 2 M PFK, 20 µM taxol, SDS-PAGE of supernatant and pellet): virtually no depolymer- izing effect
- tubulin assembly by turbidity in the presence of PFK ([2]; 2 M PFK, turbidity at 350 nm): PFK can overcome the inhibitory effect of KAR-2 on tubulin polymerization
